Tests used:
Format in all cases: in vivo
[1] = system: ducksalad (Heteranthera limosa); assay: Test B flooded paddy test; details: for Plant response rating, Ducksalad: Flood (flooded paddy test), 13 to 15 days
Outline: (§1)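 Greenhouse-held for 13 to 15 days, treated pots were compared visually with controls and scored 0–100 (0, no effect). Treatment had been made into paddy water kept at 3 cm above the soil, with plants at the 2-leaf stage.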

[2] = system: barnyardgrass (Echinochloa crus-galli); assay: Test B flooded paddy test; details: for Plant response rating, Barnyardgrass: Flood (flooded paddy test), 13 to 15 days
Outline: as §1

[3] = system: rice (Oryza sativa); assay: Test B flooded paddy test; details: for Plant response rating, Rice: Flood (flooded paddy test), 13 to 15 days
Outline: as §1

[4] = system: umbrella sedge (Cyperus difformis); assay: Test B flooded paddy test; details: for Plant response rating, Sedge, Umbrella: Flood (flooded paddy test), 13 to 15 days
Outline: as §1

[5] = system: lambsquarters (Chenopodium album); assay: Test B pre-/postemergence plant response
Outline: (§2)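 Visually scored on a 0 to 100 scale after 13 to 15 days in greenhouse versus controls. Treatments were preemergence on seeded loam/sand soil and postemergence on 1- to 4-leaf plants.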

[6] = system: giant foxtail (Setaria faberii); assay: Test B pre-/postemergence plant response
Outline: as §2

[7] = system: johnsongrass (Sorghum halepense); assay: Test B pre-/postemergence plant response
Outline: as §2

[8] = system: green foxtail (Setaria viridis); assay: Test B pre-/postemergence plant response
Outline: as §2

[9] = system: kochia (Kochia scoparia); assay: Test B pre-/postemergence plant response
Outline: as §2

[10] = system: cocklebur (Xanthium strumarium); assay: Test B pre-/postemergence plant response
Outline: as §2

[11] = system: ragweed (common ragweed, Ambrosia elatior); assay: Test B pre-/postemergence plant response
Outline: as §2

[12] = system: corn (Zea mays); assay: Test B pre-/postemergence plant response
Outline: as §2

[13] = system: soybean (Glycine max); assay: Test B pre-/postemergence plant response
Outline: as §2

[14] = system: pigweed (Amaranthus retroflexus); assay: Test B pre-/postemergence plant response
Outline: as §2

[15] = system: wild oat (Avena fatua); assay: Test B pre-/postemergence plant response
Outline: as §2

[16] = system: bermudagrass (Cynodon dactylon); assay: Test B pre-/postemergence plant response
Outline: as §2

[17] = 250 g ai/ha, flooded paddy test, visual rating on 0 to 100 scale (0 no effect, 100 complete control) after 13 to 15 days
[18] = 62 g ai/ha, scale of 0 to 100 where 0 is no effect and 100 is complete control
[19] = 125 g ai/ha, scale 0 to 100, 0 is no effect, 100 is complete control
[20] = Flood, 31 g ai/ha, scale 0 to 100 (0 no effect, 100 complete control)
[21] = 31 g ai/ha, postemergence, scale 0 to 100, 0 is no effect, 100 is complete control
[22] = 250 g ai/ha, Preemergence, 0 to 100 scale
[23] = Postemergence, 62 g ai/ha, scale 0 (no effect) to 100 (complete control), 13 to 15 days
[24] = Postemergence, 125 g ai/ha, visual rating after 13 to 15 days, scale 0 (no effect) to 100 (complete control)
[25] = Postemergence, 250 g ai/ha, scale 0 to 100 (0 no effect, 100 complete control)
[26] = Preemergence, 31 g ai/ha, scale 0 to 100 (0 no effect, 100 complete control)
[27] = Preemergence, 62 g ai/ha, scale 0 to 100, 0 no effect, 100 complete control
[28] = Preemergence, 125 g ai/ha, scale 0 to 100, 0 no effect, 100 complete control

O=C1CCCC(O)=C1C(=O)c1cnc(-c2cccs2)n(-c2ccccc2)c1=O [Compound 66]
Plant response rating, Flood, Ducksalad [1, 17]: 20
Plant response rating, Ducksalad [1, 18]: 0
Plant response rating, Ducksalad [1, 19]: 0
Ducksalad plant response rating [1, 20]: 0
Plant response rating, Flood, Barnyardgrass [2, 17]: 45
Plant response rating, Barnyardgrass [2, 18]: 0
Plant response rating, Barnyardgrass [2, 19]: 0
Barnyardgrass plant response rating [2, 20]: 0
Plant response rating, Flood, Rice [3, 17]: 20
Plant response rating, Rice [3, 18]: 0
Plant response rating, Rice [3, 19]: 0
Rice plant response rating [3, 20]: 0
Plant response rating, Flood, Sedge, Umbrella [4, 17]: 50
Plant response rating, Sedge, Umbrella [4, 18]: 0
Plant response rating, Sedge, Umbrella [4, 19]: 30
Sedge, Umbrella plant response rating [4, 20]: 0
Plant response rating, Lambsquarters [5, 21]: 95
Plant response rating, Lambsquarters [5, 22]: 100
Plant response rating, Lambsquarters [5, 23]: 95
Plant response rating, Lambsquarters [5, 24]: 95
Plant response rating, Lambsquarters [5, 25]: 100
Plant response rating, Lambsquarters [5, 26]: 98
Plant response rating, Lambsquarters [5, 27]: 98
Plant response rating, Lambsquarters [5, 28]: 98
Plant response rating, Foxtail, Giant [6, 21]: 65
Plant response rating, Foxtail, Giant [6, 22]: 80
Plant response rating, Foxtail, Giant [6, 23]: 75
Plant response rating, Foxtail, Giant [6, 24]: 80
Plant response rating, Foxtail, Giant [6, 25]: 95
Plant response rating, Foxtail, Giant [6, 26]: 15
Plant response rating, Foxtail, Giant [6, 27]: 20
Plant response rating, Foxtail, Giant [6, 28]: 75
Plant response rating, Johnsongrass [7, 21]: 45
Plant response rating, Johnsongrass [7, 22]: 98
Plant response rating, Johnsongrass [7, 23]: 60
Plant response rating, Johnsongrass [7, 24]: 65
Plant response rating, Johnsongrass [7, 25]: 65
Plant response rating, Johnsongrass [7, 26]: 0
Plant response rating, Johnsongrass [7, 27]: 55
Plant response rating, Johnsongrass [7, 28]: 85
Plant response rating, Foxtail, Green [8, 21]: 80
Plant response rating, Foxtail, Green [8, 22]: 75
Plant response rating, Foxtail, Green [8, 23]: 85
Plant response rating, Foxtail, Green [8, 24]: 90
Plant response rating, Foxtail, Green [8, 25]: 98
Plant response rating, Foxtail, Green [8, 26]: 0
Plant response rating, Foxtail, Green [8, 27]: 5
Plant response rating, Foxtail, Green [8, 28]: 30
Plant response rating, Kochia [9, 21]: 80
Plant response rating, Kochia [9, 22]: 85
Plant response rating, Kochia [9, 23]: 85
Plant response rating, Kochia [9, 24]: 90
Plant response rating, Kochia [9, 25]: 98
Plant response rating, Kochia [9, 26]: 80
Plant response rating, Kochia [9, 27]: 80
Plant response rating, Kochia [9, 28]: 85
Plant response rating, Cocklebur [10, 21]: 10
Plant response rating, Cocklebur [10, 22]: 0
Plant response rating, Cocklebur [10, 23]: 10
Plant response rating, Cocklebur [10, 24]: 25
Plant response rating, Cocklebur [10, 25]: 45
Plant response rating, Cocklebur [10, 26]: 0
Plant response rating, Cocklebur [10, 27]: 0
Plant response rating, Cocklebur [10, 28]: 0
Plant response rating, Ragweed [11, 21]: 0
Plant response rating, Ragweed [11, 23]: 10
Plant response rating, Ragweed [11, 24]: 25
Plant response rating, Ragweed [11, 25]: 60
Plant response rating, Ragweed [11, 26]: 0
Plant response rating, Ragweed [11, 27]: 0
Plant response rating, Ragweed [11, 28]: 45
Plant response rating, Corn [12, 21]: 25
Plant response rating, Corn [12, 22]: 0
Plant response rating, Corn [12, 23]: 55
Plant response rating, Corn [12, 24]: 70
Plant response rating, Corn [12, 25]: 75
Plant response rating, Corn [12, 26]: 0
Plant response rating, Corn [12, 27]: 0
Plant response rating, Corn [12, 28]: 0
Plant response rating, Soybean [13, 21]: 95
Plant response rating, Soybean [13, 23]: 95
Plant response rating, Soybean [13, 24]: 98
Plant response rating, Soybean [13, 25]: 98
Plant response rating, Pigweed [14, 21]: 98
Plant response rating, Pigweed [14, 23]: 98
Plant response rating, Pigweed [14, 24]: 100
Plant response rating, Pigweed [14, 25]: 100
Plant response rating, Pigweed [14, 26]: 98
Plant response rating, Pigweed [14, 27]: 98
Plant response rating, Pigweed [14, 28]: 98
Plant response rating, Oat, Wild [15, 21]: 0
Plant response rating, Oat, Wild [15, 23]: 0
Plant response rating, Oat, Wild [15, 24]: 5
Plant response rating, Oat, Wild [15, 25]: 10
Plant response rating, Oat, Wild [15, 26]: 0
Plant response rating, Oat, Wild [15, 27]: 0
Plant response rating, Oat, Wild [15, 28]: 0
Plant response rating, Bermudagrass [16, 21]: 70
Plant response rating, Bermudagrass [16, 22]: 98
Plant response rating, Bermudagrass [16, 23]: 70
Plant response rating, Bermudagrass [16, 24]: 95
Plant response rating, Bermudagrass [16, 25]: 95
Plant response rating, Bermudagrass [16, 26]: 20
Plant response rating, Bermudagrass [16, 27]: 80
Plant response rating, Bermudagrass [16, 28]: 98

— patent US8952024B2, “Herbicidal pyrimidone derivatives” (E I du Pont de Nemours and Company, priority 2009, dated 2015)
